Measured values: patent publication US20090054421A1, “Pyrimidothiophene Compounds Having HSP90 Inhibitory Activity” (Vernalis R & D Limited, priority 2005, published 2009)

Biological target: T1, human full-length HSP90 (Homo sapiens, UniProt P08238)
T1 construct: E. coli expressed human full-length HSP90 protein, purified >95%; made in house; host or cells: E. coli
Experiment: Fluorescence polarization assay (competitive displacement of fluorescein-labelled probe from HSP90)
Assay type: binding
Settings: activity range A or B
Source text: Fluorescence Polarization Assay
Fluorescence polarization {also known as fluorescence anisotropy} measures the rotation of a fluorescing species in solution, where the larger molecule the more polarized the fluorescence emission. When the fluorophore is excited with polarized light, the emitted light is also polarized. The molecular size is proportional to the polarization of the fluorescence emission.
The fluoroscein-labelled probe—
binds to HSP90 {full-length human, full-length yeast or N-terminal domain HSP90} and the anisotropy {rotation of the probe:protein complex} is measured.
Test compound is added to the assay plate, left to equilibrate and the anisotropy measured again. Any change in anisotropy is due to competitive binding of compound to HSP90, thereby releasing probe.
Chemicals are of the highest purity commercially available and all aqueous solutions are made up in AR water. • 1) Costar 96-well black assay plate #3915 • 2) Assay buffer of (a) 100 mM Tris pH7.4; (b) 20 mM KCl; (c) 6 mM MgCl2. Stored at room temperature. • 3) BSA (bovine serum albumen) 10 mg/ml (New England Biolabs # B9001S) • 4) 20 mM probe in 100% DMSO stock concentration. Stored in the dark at RT. Working concentration is 200 nM diluted in AR water and stored at 4° C., Final concentration in assay 80 nM. • 5) E. coli expressed human full-length HSP90 protein, purified >95% (see, e.g., Panaretou et al., 1998) and stored in 50 μL aliquots at −80° C.
• 1) Add 100 μl 1× buffer to wells 11A and 12A (=FP BLNK) • 2) Prepare assay mix—all reagents are kept on ice with a lid on the bucket as the probe is light-sensitive.
• 3) Aliquot 100 μl assay mix to all other wells • 4) Seal plate and leave in dark at room temp for 20 minutes to equilibrate Compound Dilution Plate—1×3 dilution series • 1) In a clear 96-well v-bottom plate—{# VWR 007/008/257} add 10 μl 100% DMSO to wells B1 to H11 • 2) To wells A1 to A11 add 17.5 μl 100% DMSO • 3) Add 2.5 μl cpd to A1. This gives 2.5 mM {50×} stock cpd—assuming cpds 20 mM. • 4) Repeat for wells A2 to A10. Control in columns 11 and 12. • 5) Transfer 5 μl from row A to row B—not column 12. Mix well. • 6) Transfer 5 μl from row B to row C. […] In column 11 {provides standard curve} only add compound B11-H11. Add 2 μl of 100 mM standard cpd to wells B12-H12 {is positive control} • 13) The Z′ factor is calculated from zero controls and positive wells. It typically gives a value of 0.7-0.9.
The compounds tested in the above assay were assigned to one of two activity ranges, namely A=<10 μM; B=>10 μM, and those assignments are reported above.

T1 sequence (P08238 whole entry): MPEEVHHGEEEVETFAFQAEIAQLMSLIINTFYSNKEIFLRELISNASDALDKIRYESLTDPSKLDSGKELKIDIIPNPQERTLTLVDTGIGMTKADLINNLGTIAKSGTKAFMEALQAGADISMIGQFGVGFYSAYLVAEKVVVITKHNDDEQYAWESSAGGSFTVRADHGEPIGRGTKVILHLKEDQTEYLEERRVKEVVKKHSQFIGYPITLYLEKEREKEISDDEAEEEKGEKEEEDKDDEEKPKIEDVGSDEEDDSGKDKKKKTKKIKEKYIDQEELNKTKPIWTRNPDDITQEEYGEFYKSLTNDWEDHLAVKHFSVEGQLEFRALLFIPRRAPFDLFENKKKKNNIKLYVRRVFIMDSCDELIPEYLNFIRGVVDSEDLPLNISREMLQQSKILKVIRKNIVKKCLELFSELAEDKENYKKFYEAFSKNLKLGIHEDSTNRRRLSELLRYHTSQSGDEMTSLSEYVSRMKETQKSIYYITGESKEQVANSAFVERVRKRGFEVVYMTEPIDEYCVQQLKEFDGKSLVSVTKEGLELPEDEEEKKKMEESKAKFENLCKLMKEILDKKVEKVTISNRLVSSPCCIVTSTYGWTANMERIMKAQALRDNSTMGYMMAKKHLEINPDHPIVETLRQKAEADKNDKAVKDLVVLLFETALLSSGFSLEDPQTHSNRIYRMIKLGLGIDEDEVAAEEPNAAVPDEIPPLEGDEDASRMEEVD

Row | Compound | IC50
1 | CN(C)CCNC(=O)c1cc2c(C(=NOCCN3CCCC3)c3ccc4c(c3)OCO4)nc(N)nc2s1 [Example 63] | > 10 µM
2 | CN(C)CCNC(=O)c1cc2c(C(=NOCCN3CCCC3=O)c3ccc4c(c3)OCO4)nc(N)nc2s1 [Example 64] | > 10 µM
3 | CCN(CC)CCON=C(c1ccc2c(c1)OCO2)c1nc(N)nc2sc(C(=O)NCCN(C)C)cc12 [Example 65] | > 10 µM
4 | CCNC(=O)c1cc2c(C(=NOCCN3CCCC3)c3ccc(-n4cccc4)cc3)nc(N)nc2s1 [Example 68] | > 10 µM
5 | CCNC(=O)c1cc2c(C(=NOCCN3CCCC3)c3ccc(-n4cccn4)cc3)nc(N)nc2s1 [Example 69] | > 10 µM
6 | CCNC(=O)c1cc2c(C(=NOCCN(CC)CC)c3ccc(-n4cccc4)cc3)nc(N)nc2s1 [Example 70] | > 10 µM
7 | CCNC(=O)c1cc2c(C(=NOCCN3CCCC3=O)c3ccc(-n4cccc4)cc3)nc(N)nc2s1 [Example 71] | > 10 µM
8 | CCNC(=O)c1cc2c(C(=NOCCN(CC)CC)c3ccc(N4CCCC4=O)cc3)nc(N)nc2s1 [Example 73] | > 10 µM
9 | CCNC(=O)c1cc2c(C(=NO)c3ccc(-n4cccc4)cc3)nc(N)nc2s1 [Example 80] | < 10 µM
10 | CCNC(=O)c1cc2c(C(=NO)c3ccc(-n4cccn4)cc3)nc(N)nc2s1 [Example 81] | < 10 µM

Continued, values first:

Row | IC50 | Compound
11 | < 10 µM | CCNC(=O)c1cc2c(C(=NOCCN3CCCC3=O)c3ccc(-n4cccn4)cc3)nc(N)nc2s1 [Example 67]
12 | < 10 µM | CCNC(=O)c1cc2c(C(=NOCCN3CCCC3)c3ccc(N4CCCC4=O)cc3)nc(N)nc2s1 [Example 72]
13 | < 10 µM | CCN(CC)CCON=C(c1ccc2c(c1)OCO2)c1nc(N)nc2sc(C(=O)NCC(F)(F)F)cc12 [Example 74]
14 | < 10 µM | Nc1nc(C(=NOCCN2CCCC2)c2ccc3c(c2)OCO3)c2cc(C(=O)NCC(F)(F)F)sc2n1 [Example 75]
15 | < 10 µM | Nc1nc(C(=NOCCN2CCCC2=O)c2ccc3c(c2)OCO3)c2cc(C(=O)NCC(F)(F)F)sc2n1 [Example 76]
16 | < 10 µM | CCNC(=O)c1cc2c(C(=NOCCN3CCCC3=O)c3ccc(N4CCCC4=O)cc3)nc(N)nc2s1 [Example 77]
17 | < 10 µM | CCNC(=O)c1cc2c(C(=NO)c3ccc(N4CCCC4=O)cc3)nc(N)nc2s1 [Example 78]
